Source: article PMC9367672, “In vitro differences in toddalolactone metabolism in various species and its effect on cytochrome P450 expression” (Pharmaceutical Biology, 2022)

Tests used:
Format in all cases: in vitro ADME
[1] = Metabolic stability assessment in rabbit liver microsomes; settings: pH 7.4, RAMs, toddalolactone 20 μM, 0-90 min
Description: (§1) The CYP reaction system (200 μL) consisted of 0.1 M potassium phosphate buffer (pH 7.4), an NADPH-generating system (1 mM NADPH, 10 mM G-6-P, 1 unit/mL G-6-PD, 4 mM MgCl2), and liver microsomes or recombinant human microsomes (supersomes). Each of the in vitro enzymatic assays using liver microsomes was linear with respect to incubation time and amount of protein. After a pre-incubation at 37 °C for 3 min, the reactions were initiated by adding NADP^+. After incubating for 60 min, the reactions were quenched by adding 200 μL of ice-cold acetonitrile. Samples were centrifuged at 18,000 g for 15 min at 4 °C and 10 μL of supernatant was analyzed using an HPLC system. […]
(§2) In the UGT reaction system, liver microsomes were incubated in 200 μL of the reaction system containing 4 mM UDPGA, 5 mM MgCl2, 20 µg/mL alamethicin, and 50 mM Tris-HCl buffer (pH 7.4). […] After centrifugation at 18,000 g for 15 min, 10 μL of the supernatant was analyzed by HPLC.
(§3) Toddalolactone (20 μM) was incubated with different liver microsomes, including HLMs, DLMs, PLMs, MLMs, RAMs, RLMs or MIMs in oxidative metabolism and glucuronidation reaction systems. […] The mixtures were centrifuged at 18,000 g for 15 min at 4 °C and then 10 μL of the supernatant was analyzed by HPLC. […]
(§4) The peak areas of toddalolactone and its metabolites were detected using a HPLC system (Shimadzu, Kyoto, Japan). […]

[2] = Metabolic stability assessment in mouse liver microsomes; settings: pH 7.4, MIMs, CYP incubation system, toddalolactone 20 μM, 0-90 min, read-out: half-life value (T1/2)
Description: as §1, §2, §3, §4

[3] = Enzyme kinetics of toddalolactone metabolism in rabbit liver microsomes (oxidative metabolism and glucuronidation); settings: rabbit, liver microsomes, pH 7.4, RAMs, Vmax/Km
Description: (§5) The CYP reaction system (200 μL) consisted of 0.1 M potassium phosphate buffer (pH 7.4), an NADPH-generating system (1 mM NADPH, 10 mM G-6-P, 1 unit/mL G-6-PD, 4 mM MgCl2), and liver microsomes or recombinant human microsomes (supersomes). Each of the in vitro enzymatic assays using liver microsomes was linear with respect to incubation time and amount of protein. After a pre-incubation at 37 °C for 3 min, the reactions were initiated by adding NADP^+. After incubating for 60 min, the reactions were quenched by adding 200 μL of ice-cold acetonitrile. Samples were centrifuged at 18,000 g for 15 min at 4 °C and 10 μL of supernatant was analyzed using an HPLC system. NADPH or CYP enzyme sources were not used in the control group to ensure that the metabolic reactions were CYP- and NADPH-dependent. All incubation assays were completed in triplicate. The data are presented as mean ± standard deviation (SD).
(§6) In the UGT reaction system, liver microsomes were incubated in 200 μL of the reaction system containing 4 mM UDPGA, 5 mM MgCl2, 20 µg/mL alamethicin, and 50 mM Tris-HCl buffer (pH 7.4). After pre-incubation at 37 °C for 3 min, UDPGA was added to the mixture to initiate the reactions. The mixtures were incubated at 37 °C for 60 min, followed by the addition of 200 μL of cold methanol to terminate the reactions. After centrifugation at 18,000 g for 15 min, 10 μL of the supernatant was analyzed by HPLC.
(§7) The enzyme kinetics of toddalolactone in oxidative metabolism and glucuronidation were determined by incubating liver microsomes (0.2 mg/mL) or CYPs (15 nM) with different concentrations of toddalolactone (1–200 μM). The kinetic parameters including Km and Vmax were obtained by fitting the experimental data to the Michaelis–Menten equation (Equation (1)), biphasic kinetics equation (Equation (2)), or substrate inhibition equation (Equation (3)) (He et al. [2018]), and the results were graphically represented on Eadie–Hofstee plots. The in vitro intrinsic clearance (CLint) was calculated based on the Vmax/Km ratio. Metabolites were quantified using the standard curve for toddalolactone because of the absence of metabolite standards. All incubations were repeated in three independent experiments. Kinetic constants were expressed with mean ± SD: (1) V=Vmax×[S]/Km+[S] (2) V=Vmax1×[S]/Ks1+[S]+Vmax2×[S]/Ks2+[S] (3) V=Vmax×[S]/Ks+[S]+[S]^2/Ksi where v is the rate of reaction, Vmax is the estimated maximum velocity, [S] is the substrate concentration, and Km is the affinity constant of the substrate; Vmax1 and Vmax2 represent the estimated maximum velocity of the two metabolic phases; Ks1 and Ks2 represent the affinity constants for two metabolic phases; Ks and Ksi are the substrate affinity and inhibition constants, respectively.
(§8) The enzyme kinetics in oxidative metabolism and glucuronidation of toddalolactone were studied, and preliminary experiments were performed to ensure that metabolites were formed in the linear range of both reaction time and microsomal protein concentration. The metabolite with the largest peak area was used to calculate the kinetic parameter values (Km, Vmax and CLint). Based on the results of toddalolactone metabolism in different species, the kinetic parameter values in RLMs, DLMs, MLMs, HLMs, RAMs, MIMs, PLMs, CYP1A1 and CYP3A5 were calculated using P4, P4, P4, P4, P2, P2, P4, P4 and P4 data in oxidative metabolism, respectively. In the glucuronidation reaction, the kinetic parameter values in RLMs, MLMs, HLMs, RAMs and PLMs were calculated using P5, P6, P6, P6 and P5 data, respectively.

RAMs = assay: as above; settings: RAMs; for V max: toddalolactone 1–200 μM
Description: as §5, §6, §7, §8

[4] = P450-catalyzed oxidation, P2 formation
[5] = glucuronide metabolism, P6 formation

Q: For `COc1cc2oc(=O)ccc2c(OC)c1C[C@@H](O)C(C)(C)O` [toddalolactone], which half-life at 20 μM ([1]; CYP incubation system, read-out: half-life value (T1/2)) is on record?
A: 6.78 ± 0.517 h

Q: What about the half-life at 20 μM ([1]; UGT incubation system, read-out: T1/2 value) of the same molecule?
A: 2.07 ± 0.138 h

Q: And the half-life at 20 μM [2]?
A: 3.92 ± 0.35 h

Q: What about the microsomal CLint [3, 4] of the same molecule?
A: 0.26 µL/min/mg

Q: And the microsomal CLint [3, 5]?
A: 0.12 µL/min/mg

Q: And the K m (RAMs; [4])?
A: 76.46 ± 16.02 µM

Q: And the V max (RAMs; [4])?
A: 20.03 ± 1.72 pmol/min/mg protein

Q: What about the K m (RAMs; [5]) of the same molecule?
A: 91.46 ± 28.22 µM

Q: What about the V max (RAMs; [5]) of the same molecule?
A: 11.98 ± 2.19 pmol/min/mg protein
